# Reference: BigSolDB 2.1
compound,measurement,setting,value
COC1=CC(=O)C[C@@H](C)[C@]12Oc1c(Cl)c(OC)cc(OC)c1C2=O,solubility (mole fraction),"in DMF, 278.15 K",0.00484
same,solubility (mole fraction),"in DMF, 283.15 K",0.00541
same,solubility (mole fraction),"in DMF, 288.15 K",0.0061
same,solubility (mole fraction),"in DMF, 293.15 K",0.00703
same,solubility (mole fraction),"in DMF, 298.15 K",0.00811
same,solubility (mole fraction),"in DMF, 303.15 K",0.00933
same,solubility (mole fraction),"in DMF, 308.15 K",0.0106
same,solubility (mole fraction),"in DMF, 313.15 K",0.012
same,solubility (mole fraction),"in DMF, 318.15 K",0.0136
same,solubility (mole fraction),"in DMF, 323.15 K",0.0155
same,solubility (mole fraction),"in NMP, 278.15 K",0.0324
same,solubility (mole fraction),"in NMP, 283.15 K",0.0344
same,solubility (mole fraction),"in NMP, 288.15 K",0.0369
same,solubility (mole fraction),"in NMP, 293.15 K",0.0394
same,solubility (mole fraction),"in NMP, 298.15 K",0.0425
same,solubility (mole fraction),"in NMP, 303.15 K",0.045
same,solubility (mole fraction),"in NMP, 308.15 K",0.0479
same,solubility (mole fraction),"in NMP, 313.15 K",0.0511
same,solubility (mole fraction),"in NMP, 318.15 K",0.0541
same,solubility (mole fraction),"in NMP, 323.15 K",0.0573
same,solubility (mole fraction),"in acetonitrile, 278.15 K",0.00331
same,solubility (mole fraction),"in acetonitrile, 283.15 K",0.00369
same,solubility (mole fraction),"in acetonitrile, 288.15 K",0.00418
same,solubility (mole fraction),"in acetonitrile, 293.15 K",0.00473
same,solubility (mole fraction),"in acetonitrile, 298.15 K",0.00536
same,solubility (mole fraction),"in acetonitrile, 303.15 K",0.00611
same,solubility (mole fraction),"in acetonitrile, 308.15 K",0.00697
same,solubility (mole fraction),"in acetonitrile, 313.15 K",0.00795
same,solubility (mole fraction),"in acetonitrile, 318.15 K",0.00899
same,solubility (mole fraction),"in acetonitrile, 323.15 K",0.0102
same,solubility (mole fraction),"in ethanol, 278.15 K",0.000218
same,solubility (mole fraction),"in ethanol, 283.15 K",0.000255
same,solubility (mole fraction),"in ethanol, 288.15 K",0.000303
same,solubility (mole fraction),"in ethanol, 293.15 K",0.00037
same,solubility (mole fraction),"in ethanol, 298.15 K",0.000446
same,solubility (mole fraction),"in ethanol, 303.15 K",0.000542
same,solubility (mole fraction),"in ethanol, 308.15 K",0.00065
same,solubility (mole fraction),"in ethanol, 313.15 K",0.000779
same,solubility (mole fraction),"in ethanol, 318.15 K",0.000928
same,solubility (mole fraction),"in ethanol, 323.15 K",0.00112
same,solubility (mole fraction),"in methanol, 278.15 K",0.000246
same,solubility (mole fraction),"in methanol, 283.15 K",0.00028
same,solubility (mole fraction),"in methanol, 288.15 K",0.000332
same,solubility (mole fraction),"in methanol, 293.15 K",0.000413
same,solubility (mole fraction),"in methanol, 298.15 K",0.000517
same,solubility (mole fraction),"in methanol, 303.15 K",0.000632
same,solubility (mole fraction),"in methanol, 308.15 K",0.00077
same,solubility (mole fraction),"in methanol, 313.15 K",0.000929
same,solubility (mole fraction),"in methanol, 318.15 K",0.00111
same,solubility (mole fraction),"in methanol, 323.15 K",0.00133
same,solubility (mole fraction),"in water, 278.15 K",1.93e-07
same,solubility (mole fraction),"in water, 283.15 K",2.5e-07
same,solubility (mole fraction),"in water, 288.15 K",3.08e-07
same,solubility (mole fraction),"in water, 293.15 K",3.86e-07
same,solubility (mole fraction),"in water, 298.15 K",4.7e-07
same,solubility (mole fraction),"in water, 303.15 K",5.7e-07
same,solubility (mole fraction),"in water, 308.15 K",7.18e-07
same,solubility (mole fraction),"in water, 313.15 K",8.91e-07
same,solubility (mole fraction),"in water, 318.15 K",1.1e-06
same,solubility (mole fraction),"in water, 323.15 K",1.36e-06
